Active and inactive are the calls of the source. How the calls were made is not given here.
Target: Ubiquitin carboxyl-terminal hydrolase 8 (Homo sapiens) (UniProt P40818)
Assay: Ubiquitin-specific protease 8 inhibitors, concentration-effect, biochemical, validation of initial actives (AID 1645862);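 further: potency reflects inhibition of USP8 cleavage of a ubiquitin rhodamine substrate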
Details: recombinant USP8 deubiquitinase activity assay

Chain of Ubiquitin carboxyl-terminal hydrolase 8 (Homo sapiens) (P40818 whole entry, looked up): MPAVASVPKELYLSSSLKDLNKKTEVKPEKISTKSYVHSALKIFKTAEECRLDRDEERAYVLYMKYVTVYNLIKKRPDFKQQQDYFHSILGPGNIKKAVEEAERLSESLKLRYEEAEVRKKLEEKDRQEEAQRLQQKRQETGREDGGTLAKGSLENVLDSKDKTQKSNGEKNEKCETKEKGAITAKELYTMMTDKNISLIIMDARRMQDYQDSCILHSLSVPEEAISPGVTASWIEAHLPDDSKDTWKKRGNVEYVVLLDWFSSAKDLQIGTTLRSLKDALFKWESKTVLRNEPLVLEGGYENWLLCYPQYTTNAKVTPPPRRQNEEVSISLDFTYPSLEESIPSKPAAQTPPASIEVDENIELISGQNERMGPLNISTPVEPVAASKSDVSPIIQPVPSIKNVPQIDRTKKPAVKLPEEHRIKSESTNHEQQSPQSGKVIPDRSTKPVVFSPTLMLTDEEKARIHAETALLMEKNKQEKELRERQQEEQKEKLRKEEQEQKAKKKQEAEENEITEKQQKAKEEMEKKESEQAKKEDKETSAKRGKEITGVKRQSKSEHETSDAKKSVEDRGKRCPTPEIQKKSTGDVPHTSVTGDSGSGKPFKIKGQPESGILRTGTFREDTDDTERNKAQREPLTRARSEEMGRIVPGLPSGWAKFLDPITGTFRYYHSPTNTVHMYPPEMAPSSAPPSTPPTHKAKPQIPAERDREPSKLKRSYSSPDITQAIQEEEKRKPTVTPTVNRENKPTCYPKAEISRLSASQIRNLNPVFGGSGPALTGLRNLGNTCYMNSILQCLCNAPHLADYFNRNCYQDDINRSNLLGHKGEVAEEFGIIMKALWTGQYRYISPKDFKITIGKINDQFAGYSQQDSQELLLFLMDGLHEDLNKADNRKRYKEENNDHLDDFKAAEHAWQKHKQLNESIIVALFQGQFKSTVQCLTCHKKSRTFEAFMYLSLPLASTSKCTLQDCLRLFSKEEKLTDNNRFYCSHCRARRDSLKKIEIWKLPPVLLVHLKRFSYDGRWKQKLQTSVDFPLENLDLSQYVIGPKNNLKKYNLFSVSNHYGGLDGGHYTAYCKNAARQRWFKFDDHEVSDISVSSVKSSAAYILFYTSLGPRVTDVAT

SMILES | IC50
COc1ccc(OC)c2c(C)cc(N3CC(C)CC(C)C3)nc12 (stereo unspecified) | > 40 µM (inactive)
CC1=CC(=O)C(C2=C(O)C(=O)C(C)=CC2=O)=C(O)C1=O | 9.22 µM
CCOc1ccc(C2SCC(=O)Nc3c2c(=O)[nH]n3C2CCCCC2)cc1 (stereo unspecified) | > 40 µM (inactive)
CC(=O)CSc1nc2sc3c(c2c(=O)n1-c1ccccc1)CCCC3 | > 40 µM (inactive)
O=C(COc1ccc(Cl)cc1)Nc1noc(-c2cccs2)n1 | > 40 µM (inactive)
CC(Nc1nnc(Cc2ccccc2)c(=O)[nH]1)c1ccccc1 (stereo unspecified) | > 40 µM (inactive)
CC1(C)Cc2c(c(-c3ccco3)nc3sc4c(SCCCc5ccccc5)ncnc4c23)CO1 | 24 µM
Cc1c(OCC(=O)NCc2ccccc2Cl)ccc2c3c(c(=O)oc12)CCC3 | > 40 µM (inactive)
NC(=O)C[C@H](NC(=O)[C@H](Cc1ccccc1)n1c(=O)[nH]c2ccccc2c1=O)C(=O)N[C@@H](Cc1ccccc1)C(=O)O | > 40 µM (inactive)
Cc1cccc(OCC2=NN3C(=N)/C(=C\c4cc(C)n(-c5cc(C)cc(C)c5)c4C)C(=O)N=C3S2)c1 | > 40 µM (inactive)
O=c1[nH]c(C2CCN(S(=O)(=O)c3ccc(S(=O)(=O)NC4CCCCC4)cc3)CC2)nc2c1nnn2Cc1c(Cl)cccc1Cl | > 40 µM (inactive)
CC1CCCN(S(=O)(=O)c2ccc(-n3cnc(C(=O)NC4CC4)c3)nc2)C1 (stereo unspecified) | > 40 µM (inactive)
COc1ccc(CC(=O)OCC(=O)N2c3ccccc3NC(=O)C2(C)C)cc1 | > 40 µM (inactive)
COc1cc(CC(=O)Nc2ccccc2N2CCOCC2)cc(OC)c1OC | > 40 µM (inactive)
N#Cc1cccc(NC(=O)c2[nH]nc3c2COc2ccccc2-3)c1 | 38.3 µM
O=C(Cn1nc2c3c4c(sc3ncn2c1=O)CCCCC4)Nc1ccc(Cl)cc1F | 26.1 µM
CCOc1ccc(NS(=O)(=O)c2ccc(NC(=O)Nc3ccccc3)cc2)cc1 | > 40 µM (inactive)
O=C(Nc1ccc2c(c1)OCCO2)C1CCC(Cn2cnc3ccccc3c2=O)CC1 (stereo unspecified) | > 40 µM (inactive)

SMILES | IC50
Cc1ncc(-c2ccc3c(c2)OCO3)c(-c2nccs2)n1 | > 40 µM (inactive)
CC(C)CC(=O)Nc1cc(F)c2nc(N3CCOCC3)ccc2c1 | > 40 µM (inactive)
O=[N+]([O-])c1ccc2c(c1)nc1n2CCN(Cc2ccco2)C1 | > 40 µM (inactive)
CC(=O)Nc1cccc(-c2cnc3sc(NC4CCCCC4)nn23)c1 | > 40 µM (inactive)
CC(=O)c1cccc(NC(=O)COC(=O)c2sc3cc(F)ccc3c2Cl)c1 | > 40 µM (inactive)
CCCCNC(=O)CSc1nnc(-c2cc3ccccc3n2C)o1 | > 40 µM (inactive)
Cn1nc(Cl)c(Cl)c1Oc1ccc(S(=O)(=O)Nc2ccc(Oc3ccc(C(F)(F)F)cn3)c(Cl)c2)cc1 | > 40 µM (inactive)
Cc1c(Cl)cccc1NC(=O)Cn1cc(C(=O)C2CC2)c2ccccc21 | > 40 µM (inactive)
O=C(Nc1c2c(nn1-c1ccc([N+](=O)[O-])cc1)CSC2)c1c(F)cccc1F | > 40 µM (inactive)
CCn1c(SCC(=O)c2c(N)n(CC(C)C)c(=O)n(C)c2=O)nnc1-c1ccccc1 | > 40 µM (inactive)
Nc1ccc(C(=O)OCC(=O)NC2CCCc3ccccc32)cc1[N+](=O)[O-] (stereo unspecified) | > 40 µM (inactive)
CN(C(=O)C1(c2ccccc2)CC1)c1nc2c(s1)CCc1occc1-2 | > 40 µM (inactive)
O=C(CSc1nc2cc(C(F)(F)F)ccc2s1)NCC(=O)c1ccccc1 | > 40 µM (inactive)
C[C@@H]1OC2=C(C(=O)c3cccc(O)c3C2=O)[C@H](O)[C@@H]1O | 0.825 µM
O=C(CSc1nc2ccccc2[nH]1)Nc1cccc2c1OCCO2 | > 40 µM (inactive)
Cc1ccc(C)c(Cn2cnc3c(nnn3-c3cccc(F)c3)c2=O)c1 | > 40 µM (inactive)
O=C(C1=CSCCO1)N1CCc2ccccc2C1 | > 40 µM (inactive)
O=C(c1ccccn1)N1CCC2(CC1)CC1(CO2)Nc2ccccc2-n2cccc21 (stereo unspecified) | 23.1 µM

More lines, now with the values ahead:

IC50 | SMILES
> 40 µM (inactive) | O=C(Nc1ccc(-c2nc3ccccc3o2)cc1)c1ccc(S(=O)(=O)N2CCc3ccccc3C2)cc1
> 40 µM (inactive) | O=C(COc1nc2ccccc2nc1N1CCOCC1)NC(c1ccccc1)c1ccccc1
> 40 µM (inactive) | COc1ccc(CCN2COc3c(cc(Cl)c4cccnc34)C2)cc1OC
> 40 µM (inactive) | COc1ccc(NC2c3ccccc3C(=O)N2c2ccccn2)cc1 (stereo unspecified)
> 40 µM (inactive) | COc1ccccc1C(=O)Nc1ccc(-c2nc3ccccc3o2)c(O)c1
> 40 µM (inactive) | COc1ccccc1NC(=O)Cn1cc(C(=O)c2ccc(C)cc2)c(=O)c2cc(Cl)ccc21
> 40 µM (inactive) | O=C(Cn1cnc(-c2noc(-c3cccc(F)c3)n2)c1)Nc1ccccc1
> 40 µM (inactive) | N#Cc1ccccc1Cn1c(=O)n(CCCC(=O)NCc2ccc(F)cc2)c(=O)c2ccccc21
> 40 µM (inactive) | Cc1ccc(-c2cc(C(F)F)n3ncc(C(=O)Nc4ccc(O)cc4)c3n2)cc1
> 40 µM (inactive) | Cc1ccc(NC(=O)Nc2ccc(C)n(CC(=O)Nc3cc(C)ccc3C)c2=O)cc1
> 40 µM (inactive) | CCc1ccc(NC(=O)Cn2c(=O)n(Cc3ccccc3)c(=O)c3nn(CC)cc32)cc1
> 40 µM (inactive) | Cc1ccccc1NC(=O)Cc1csc2nc(-c3ccc(F)cc3)cn12
> 40 µM (inactive) | O=C(Cn1c(=O)[nH]c2ccccc2c1=O)NCc1ccccc1Cl
> 40 µM (inactive) | COc1ccc(NC(=O)CC(=O)c2ccc([N+](=O)[O-])cc2)cc1S(=O)(=O)Nc1ccc(Cl)cc1
> 40 µM (inactive) | Cc1c(-c2nc(-c3ccccc3Cl)no2)nnn1-c1cccc(F)c1
38.2 µM | COc1ccc(CC(=O)Nc2c(NCc3ccccc3)c3ccccc3oc2=O)cc1
> 40 µM (inactive) | COc1ccc(NC(=O)Cn2c(=O)n(CCC(=O)NCc3ccccc3)c(=O)c3sccc32)cc1Cl
> 40 µM (inactive) | COc1ccc(NC(=O)Cn2c(=O)n(Cc3ccco3)c(=O)c3ccc(C(=O)NC4CCCC4)cc32)cc1
> 40 µM (inactive) | Cc1cccc(N2C(=O)/C(=C\c3ccc4c(c3)OCCO4)c3ccccc3C2=O)c1
> 40 µM (inactive) | Cc1ccc(CNC(=O)c2ccc3nn(CC(=O)Nc4ccccc4F)c(=O)n3c2)cc1
9.25 µM | CCOc1ccc2cc3c(nc2c1)OC(=O)N(Cc1ccc(OC)cc1)C3
> 40 µM (inactive) | CC(=O)c1ccc(NC(=O)CCc2c(C)c3c(C)nn(-c4ccccc4)c3n(C)c2=O)cc1
> 40 µM (inactive) | Nc1c(-c2ccc(Cl)cc2)cnc2cc(-c3ccc(Cl)c(Cl)c3)nn12
> 40 µM (inactive) | Cc1ccc(Nc2nc3c(S(=O)(=O)c4ccccc4)nnn3c3ccccc23)c(C)c1
> 40 µM (inactive) | CCCn1c(=O)c(-c2ccc(C(=O)NCc3ccc(OC)cc3)cc2)nc2cccnc21
> 40 µM (inactive) | CCOc1ccc2nc(NC(=O)c3ccc4ccccc4n3)sc2c1
> 40 µM (inactive) | COc1ccc(C(CNC(=O)c2cc(-c3ccc(Cl)cc3)on2)N2CCOCC2)cc1 (stereo unspecified)
> 40 µM (inactive) | Cc1cc(-c2ccc(S(=O)(=O)NCc3ccc(Cl)cc3)s2)on1

IC50 | SMILES
> 40 µM (inactive) | CC(NC(=O)c1ccccc1)c1nc2ccccc2n1CC(=O)Nc1ccc(F)cc1 (stereo unspecified)
> 40 µM (inactive) | O=C(Cn1c(COc2ccccc2)nc2ccccc21)Nc1cc(Cl)ccc1Cl
> 40 µM (inactive) | COc1cc(OC)cc(N2C(=O)N(CC(=O)c3ccc(Br)cc3)c3ccccc3S2(=O)=O)c1
> 40 µM (inactive) | Cc1cc(NC(=O)CSc2ncc(-c3cccc([N+](=O)[O-])c3)n2-c2cccc(Cl)c2)no1
> 40 µM (inactive) | CC1(C(=O)NCc2ccc(F)cc2)Cn2nc(-c3ccco3)cc2C(=O)N1c1ccc2c(c1)OCCO2 (stereo unspecified)
> 40 µM (inactive) | O=C(NCc1ccc2c(c1)OCO2)c1cc2c(s1)-c1ccccc1OC2
> 40 µM (inactive) | O=C(Nc1ccc(F)cc1F)c1cc(-c2ccccn2)n[nH]1
> 40 µM (inactive) | Cc1ccc(C2=Nc3ccccc3N(CC(=O)Nc3cccc(C)c3C)C(=O)C2)cc1C
> 40 µM (inactive) | CN1CC(c2ncn[nH]2)c2cc(C(=O)NCc3cccc(F)c3)ccc21 (stereo unspecified)
> 40 µM (inactive) | COc1cc(Cl)c(C)cc1NC(=O)Cn1c(=O)n(CC(=O)NCc2ccco2)c(=O)c2ccccc21
> 40 µM (inactive) | Cc1ccc2c(c1)c(=O)c(C(=O)c1ccccc1)cn2CC(=O)Nc1ccc2c(c1)OCO2
> 40 µM (inactive) | COC(=O)c1ccc(NC(=O)c2ccc(COc3cc(Cl)ccc3Cl)cc2)cc1
> 40 µM (inactive) | CC(=O)c1ccc(NC(=O)C2CC(=O)Nc3nc(SCc4ccccc4)nn32)cc1 (stereo unspecified)
> 40 µM (inactive) | N#Cc1ccc(NC(=O)Nc2cccn(Cc3c(F)cccc3Cl)c2=O)cc1
> 40 µM (inactive) | Cn1c(SCC(=O)c2ccc(F)cc2)nnc1-c1cc2ccccc2o1
> 40 µM (inactive) | COc1ccc(CCNC(=O)CSc2cn(CCNC(=O)c3ccccc3C)c3ccccc23)cc1OC
> 40 µM (inactive) | CNC(=O)c1c2n(c3ncccc13)CCN(S(=O)(=O)c1ccc(-c3ccccc3)cc1)C2
> 40 µM (inactive) | Cc1ccc(-c2cc(=O)n(CC(=O)Nc3ccc(C(C)C)cc3)cn2)cc1
> 40 µM (inactive) | O=C(Cc1nnc(NC(=O)Nc2ccc3c(c2)OCO3)s1)NCc1ccccc1
10.5 µM | COc1ccc(Cl)cc1NC(=O)c1cc(-c2ccccn2)n[nH]1
> 40 µM (inactive) | CCc1cccc(NC(=O)Cc2nnc3ccc(-c4nc(C)no4)cn23)c1
> 40 µM (inactive) | Cn1c(=O)c(-c2ccc(C(=O)NCc3cccc(Cl)c3)cc2)nc2cccnc21
> 40 µM (inactive) | Cc1ccc(OCc2nc3ccccc3n2CC(=O)Nc2ccc(C(F)(F)F)cc2)cc1
> 40 µM (inactive) | CN1C(=O)COc2cc(-c3noc(C(=O)NCc4ccc(F)cc4)n3)ccc21
> 40 µM (inactive) | CCOc1ccccc1-c1cc(NC(=O)c2cc3ccc4cccnc4c3[nH]2)on1
32.1 µM | O=C(CSc1nc2c(cnn2-c2ccccc2)c(=O)[nH]1)Nc1ccc(Cl)cc1F
> 40 µM (inactive) | COc1ccc(NC(=O)COc2cc(C)nc(-c3ccc(C)cc3)n2)c(OC)c1
